Patent publication US8497265B2, “Heteroaryloxyheterocyclyl compounds as PDE10 inhibitors” (Amgen Inc., priority 2010, dated 2013)

Biological target: PDE10 (Mus musculus, UniProt Q8CA95)
Test: PDE10 enzyme inhibition (IMAP TR-FRET assay)
Type: biochemical
Details: Table 8A
Protocol: MPDE10A7 Enzyme Activity and Inhibition
Enzyme Activity. An IMAP TR-FRET assay was used to analyze the enzyme activity (Molecular Devices Corp., Sunnyvale Calif.). 5 μL, of serial diluted PDE10A (BPS Bioscience, San Diego, Calif.) or tissue homogenate was incubated with equal volumes of diluted fluorescein labeled cAMP or cGMP for 60 min in 384-well polystyrene assay plates (Corning, Corning, N.Y.) at room temperature. After incubation, the reaction was stopped by adding 60 μL, of diluted binding reagents and was incubated for 3 hours to overnight at room temperature. The plates were read on an Envision (Perkin Elmer, Waltham, Mass.) for time resolved fluorescence resonance energy transfer. The data were analyzed with GraphPad Prism (La Jolla, Calif.).
Enzyme Inhibition. To check the inhibition profile, 5 μL of serial diluted compounds were incubated with 5 μL of diluted PDE10 enzyme (BPS Bioscience, San Diego, Calif.) or tissue homogenate in a 384-well polystyrene assay plate (Corning, Corning, N.Y.) for 30 min at room temperature. […] The reaction was stopped by adding 60 μL of diluted binding reagents and plates were read on an Envision (Perkin Elmer, Waltham, Mass.) for time resolved fluorescence resonance energy transfer. The data were analyzed with GraphPad Prism (La Jolla, Calif.).

PDE10, sequence (Q8CA95 whole entry, looked up): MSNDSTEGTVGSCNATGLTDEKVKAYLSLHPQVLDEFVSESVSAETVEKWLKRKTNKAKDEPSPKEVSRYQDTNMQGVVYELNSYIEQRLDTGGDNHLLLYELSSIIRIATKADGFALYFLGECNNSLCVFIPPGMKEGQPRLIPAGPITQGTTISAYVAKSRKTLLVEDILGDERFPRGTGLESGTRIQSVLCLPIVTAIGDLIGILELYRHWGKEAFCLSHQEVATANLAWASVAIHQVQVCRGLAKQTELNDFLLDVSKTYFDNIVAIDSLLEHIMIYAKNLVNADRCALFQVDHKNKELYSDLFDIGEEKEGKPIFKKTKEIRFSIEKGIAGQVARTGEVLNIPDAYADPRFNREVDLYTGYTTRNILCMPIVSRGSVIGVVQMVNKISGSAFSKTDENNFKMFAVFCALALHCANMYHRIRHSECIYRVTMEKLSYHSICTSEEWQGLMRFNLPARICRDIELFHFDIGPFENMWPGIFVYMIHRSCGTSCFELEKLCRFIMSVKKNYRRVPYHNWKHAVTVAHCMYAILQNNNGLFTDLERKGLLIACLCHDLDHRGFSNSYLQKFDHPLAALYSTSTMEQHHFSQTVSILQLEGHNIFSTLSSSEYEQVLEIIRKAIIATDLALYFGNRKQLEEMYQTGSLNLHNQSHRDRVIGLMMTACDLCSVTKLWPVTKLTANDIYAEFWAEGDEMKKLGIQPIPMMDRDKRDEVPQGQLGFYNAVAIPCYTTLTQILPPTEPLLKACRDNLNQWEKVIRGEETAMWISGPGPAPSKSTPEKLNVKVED

Question: “1-(4-(3-((1-(quinolin-2-yl)azetidin-3-yl)oxy)pyrazin-2-yl)phenyl)ethanone [Example 10.26]” was tested. Which IC50 did it give?
Answer: 24.4 nM
